# In article PMC9312206, “Atto488-Agitoxin 2—A Fluorescent Ligand with Increased Selectivity for Kv1.3 Channel Binding Site” (Bioengineering, 2022):
# “Also recorded” adds a separate entry of the source. Like-named read-outs stand apart in the source and are kept apart here.
# Assays:
# [1] = test system: KcsA–Kv1.3 (Kv1.3 binding site); assay: Competitive binding: displacement of A-AgTx2 from KcsA–Kv1.3 on E. coli spheroplasts; conditions: 1 h at 37 °C, pH 8.0; for displacement of A-AgTx2 from complexes with KcsA–Kv1.3 by peptide blockers (in words): tested AgTx2 0.4–50 nM, KTx1 0.04–2.5 nM, ChTx 10 nM, averaged over 3 independent experiments; for Kd: competition with A-AgTx2 10 nM, Kap = IC50/(1 + [L]/[Kd]), mean ± SEM, three independent measurements, read-out: apparent dissociation constant (Kap)
# Description: (§1) E. coli spheroplasts expressing KcsA or chimeric KcsA–Kv1.x (x = 1, 3, 6) channels were prepared according to the previously developed protocol. Briefly, E. coli BL21 (DE3) cells (Novagen, Merck, Darmstadt, Germany), transformed either with the pET28a-KcsA, the pET28a-KcsA–Kv1.1, or the pET28a-KcsA–Kv1.3 plasmid, were cultivated in a minimal M9 medium at 37 °C up to OD560 = 0.8 optical units per cm (o.u./cm), induced with 50 μM isopropyl β-D-1-thiogalactopyranoside, and further grown at 37 °C for 20 h. The cells transformed with pET28a-KcsA–Kv1.6 were grown at 25 °C for 28 h after induction. To prepare the spheroplasts, cells were harvested by centrifugation (5000× g, 10 min, 4 °C), incubated in buffer A (10 mM Tris–HCl, pH 8.0, 0.5 M sucrose) containing lysozyme (20 μg/mL) for 7 min on ice, then diluted twofold with buffer B (10 mM Tris–HCl, pH 8.0, 0.3 mM ethylenediamine tetraacetic acid) and further incubated for 20 min. Finally, the spheroplasts (OD560 ≈ 0.5 o.u./cm) were stabilized by the addition of MgCl2 (10 mM) and stored at 4 °C.
# (§2) All the experiments were performed in a buffer containing 50 mM Tris-HCl (pH 8.0), 4 mM KCl, 50 mM NaCl, 10 mM MgCl2, 0.3 mM EDTA, 250 mM sucrose, and 0.1% bovine serum albumin. In the binding experiments, the spheroplasts (1000 cells/μL) were incubated with different concentrations of A-AgTx2 (0.16–20 or 100 nM) or AgTx2-GFP (4 or 50 nM) for 1 h at 37 °C. In the competitive binding experiments, the spheroplasts were incubated with A-AgTx2 (10 nM) and with one of the following compounds for 1 h at 37 °C: AgTx2 (0.4–50 nM), KTx1 (0.04–2.5 nM), ChTx (10 nM), ScyTx (5 µM), tetraethylammonium (TEA, 10 mM).
# (§3) After incubation with ligands, the spheroplasts were placed in a 12-well flexiPERM silicon chamber (Perbio, Aalst, Belgium) attached to a thin (0.15 mm) cover glass and were centrifuged at 200× g for 5 min to immobilize the spheroplasts to a cover glass. The microscopy studies were carried out with a laser scanning confocal microscope LSM 710 (Zeiss, Oberkochen, Germany) using the α Plan-Apochromat 100×/1.46 oil immersion objective. Fluorescence of A-AgTx2 and AgTx2-GFP was excited at the 488 nm wavelength and recorded in the 495–590 nm range, at a 0.25 μm lateral and ca. 1.5 μm axial resolution. Image J software (National Institutes of Health, Bethesda, MD, USA) was used to treat the images and define the fluorescence intensity of the ligand bound to each measured spheroplast and the average fluorescence intensity Ia of the bound fluorescent ligand (mean ± SEM, n = 130–230 cells per point).
# The apparent dissociation constant (Kap) of non-labeled ligands (AgTx2, KTx1) was calculated using the data of competition binding experiments according to the procedure described elsewhere with the following equation: Kap = IC50/(1 + [L]/[Kd])(2) where [L] is a concentration of A-AgTx2 (10 nM), IC50 is the concentration of a non-labeled ligand that displaces 50% of A-AgTx2 from the complex with KcsA–Kv1.3. Kap was introduced instead of Kd to emphasize an indirect method (the competitive binding experiment) for its determination.
# (§4) The Kd and Kap values from three independent measurements were averaged and presented as mean ± SEM.
# [2] = test system: KcsA–Kv1.6 (Kv1.6 binding site); assay: Direct binding of fluorescent ligand to hybrid KcsA–Kv1.6 on E. coli spheroplasts, confocal microscopy; conditions: A-AgTx2 100 nM, 1 h at 37 °C, pH 8.0
# Description: (§5) E. coli spheroplasts expressing KcsA or chimeric KcsA–Kv1.x (x = 1, 3, 6) channels were prepared according to the previously developed protocol. Briefly, E. coli BL21 (DE3) cells (Novagen, Merck, Darmstadt, Germany), transformed either with the pET28a-KcsA, the pET28a-KcsA–Kv1.1, or the pET28a-KcsA–Kv1.3 plasmid, were cultivated in a minimal M9 medium at 37 °C up to OD560 = 0.8 optical units per cm (o.u./cm), induced with 50 μM isopropyl β-D-1-thiogalactopyranoside, and further grown at 37 °C for 20 h. The cells transformed with pET28a-KcsA–Kv1.6 were grown at 25 °C for 28 h after induction. […]
# as §3, with “The microscopy studies were carried out with a laser scanning confocal microscope LSM 710 (Zeiss, Oberkochen, Germany) using the α Plan-Apochromat 100×/1.46 oil immersion objective.” left out
# [3] = test system: KcsA–Kv1.3 (Kv1.3 binding site); assay: Direct binding of fluorescent ligand to hybrid KcsA–Kv1.3 on E. coli spheroplasts, confocal microscopy
# Description: as §1, with “°C. To obtain spheroplasts from non-transformed cells, E. coli BL21 (DE3) cells were subjected to similar growth, induction, and treatment procedures.” for “°C.”
# as §2, §3
# The dissociation constants (Kd) of complexes between A-AgTx2 and KcsA–Kv1.3 were defined by fitting the experimental dependencies of Ia onto the concentration L of A-AgTx2 with the following equation:Ia ([L]) = Ias [L]/(Kd + [L])(1) where Ias is the Ia value when the A-AgTx2 binding is saturated.
# as §4
# KcsA = assay: Direct binding of fluorescent ligand to control spheroplasts expressing KcsA; conditions: A-AgTx2 100 nM
# Description: as §5
# as §3, with “The microscopy studies were carried out with a laser scanning confocal microscope LSM 710 (Zeiss, Oberkochen, Germany) using the α Plan-Apochromat 100×/1.46 oil immersion objective.” left out
# [4] = test system: spheroplasts prepared from non-transformed cells; assay: Direct binding of fluorescent ligand to control spheroplasts from non-transformed cells (plasma membrane); design: species or system E. coli BL21 (DE3); conditions: A-AgTx2 100 nM
# Description: as §5
# as §3, with “The microscopy studies were carried out with a laser scanning confocal microscope LSM 710 (Zeiss, Oberkochen, Germany) using the α Plan-Apochromat 100×/1.46 oil immersion objective.” left out
# [5] = test system: KcsA–Kv1.1 (Kv1.1 binding site); assay: Direct binding of fluorescent ligand to hybrid KcsA–Kv1.1 on E. coli spheroplasts, confocal microscopy; conditions: A-AgTx2 100 nM, 1 h at 37 °C, pH 8.0
# Description: as §5
# as §3, with “The microscopy studies were carried out with a laser scanning confocal microscope LSM 710 (Zeiss, Oberkochen, Germany) using the α Plan-Apochromat 100×/1.46 oil immersion objective.” left out
# Kv1.3 channel [6] = conditions: cited from earlier work
# Description: High-affinity and genetically ... || Interactions of A-AgTx2 with the Kv1.3 binding site were further characterized using known small organic molecule (TEA) and peptide blockers (ChTx, KTx1, AgTx2) of the Kv1.3 channel.
# Kv1.1 channel = conditions: cited from earlier work
# Description: (§6) Differences between two labeled derivatives include the position of a label (carboxytetramehylrhodamine was located at the C-terminus of AgTx2 [11]), the number of charges, and the total charge at the labels. Atto488 bears two negatively and one positively charged groups (Figure 1C), while carboxytetramehylrhodamine bears one negative charge and one positive charge. It can be s ... || (+ 1 further places)
# Kv1.6 channel = conditions: cited from earlier work
# Description: as §6
# Kv1.3 channel [7] = conditions: read-out: Kd, electrophysiological studies, cited from earlier work
# Shaker K^+ channel = conditions: ref [1]; cited from earlier work
# Description: The toxin contains a triple-stranded antiparallel β-sheet with two outer strands—S1 (Val2-Cys8) and S2 (Arg24-Met29)—and the central strand S3 (Lys32—Thr ...
# KcsA–Kv1.3 = conditions: estimated previously; ref [15]; read-out: apparent dissociation constant, KcsA–Kv1.3-bearing spheroplasts and GFP-tagged AgTx2 ligand; cited from earlier work
# Description: Since the bioengineering system based on KcsA–Kv1.3-bearing spheroplasts is suitable for the quantitative analysis of the affinity of unlabeled pore blockers by measuring the competitive binding of the fluorescent ligand and the compound under study, we tested A-AgTx2 in such an analysis (Figure 4C). […] The concentrations of AgTx2 and KTx1 displacing 50% of A-AgTx2, which were determined from the measured dependences, made it possible to calculate the apparent dis ...
# KCa2.1 channel = conditions: ref [18]; cited from earlier work
# KCa2.3 channel = conditions: ref [18]; cited from earlier work
# KCa2.2 channel = conditions: ref [18]; cited from earlier work
molecule,measurement,setting,value
"CC[N+](CC)(CC)CC [TEA, tetraethylammonium]",displacement of A-AgTx2 from complexes with KcsA–Kv1.3 by TEA (in words),"[1]; A-AgTx2 10 nM, TEA 10 mM",accomplished this at millimolar concentrations
Atto488-agitoxin 2 [A-AgTx2],binding of A-AgTx2 to KcsA–Kv1.6 / Kv1.6 binding site (in words),[2],lose affinity for the Kv1.1 and Kv1.6 binding sites; also recorded: does not stain spheroplasts presenting KcsA–Kv1.1 or KcsA–Kv1.6; also recorded: inability of A-AgTx2 to interact with the Kv1.1 and Kv1.6 binding sites
same,affinity for the Kv1.3 binding site compared to the unlabeled AgTx2 (in words),[3],decreased as compared to the unlabeled AgTx2
same,binding of A-AgTx2 to spheroplasts expressing KcsA–Kv1.3 (in words),"[3]; A-AgTx2 20 nM, 1 h at 37 °C, pH 8.0",effectively binds to spheroplasts expressing KcsA–Kv1.3
same,Kd,"[3]; A-AgTx2 0.16–20 nM, 1 h at 37 °C, pH 8.0, 4 mM KCl, 50 mM NaCl, 0.1% BSA, mean ± SEM, n = 3, read-out: dissociation constant (Kd) of complexes with KcsA–Kv1.3",3.9 ± 0.2 nM
same,intensity of fluorescence detected from KcsA–Kv1.3-bearing spheroplasts relative to control spheroplasts (higher than),"[3]; A-AgTx2, control: spheroplasts expressing KcsA or not expressing heterologous channels, difference preserved with controls at fivefold higher A-AgTx2 concentration",fifty
same,selectivity toward Kv1.3 as compared to the Kv1.1 and Kv1.6 binding sites (in words),[3]; in contrast to non-modified AgTx2,considerably increased selectivity toward Kv1.3
same,non-specific ligand binding to the KcsA channel scaffold (in words),KcsA,very low
same,non-specific ligand binding to plasma membrane (in words),[4],very low
same,binding of A-AgTx2 to KcsA–Kv1.1 / Kv1.1 binding site (in words),[5],lose affinity for the Kv1.1 and Kv1.6 binding sites; also recorded: does not stain spheroplasts presenting KcsA–Kv1.1 or KcsA–Kv1.6; also recorded: inability of A-AgTx2 to interact with the Kv1.1 and Kv1.6 binding sites
R-AgTx2: AgTx2 labeled with carboxytetramethylrhodamine at Lys38,affinity for Kv1.3 binding site (in words),"Kv1.3 channel [6]; ref [11],[12],[13]",nanomolar affinity
same,affinity for Kv1.1 binding site (in words),"Kv1.1 channel; ref [11],[12],[13]",nanomolar affinity
same,affinity for Kv1.6 binding site (in words),"Kv1.6 channel; ref [11],[12],[13]",nanomolar affinity
agitoxin 2 [AgTx2],displacement of A-AgTx2 from complexes with KcsA–Kv1.3 by peptide blockers (in words),[1]; A-AgTx2 10 nM,displaced A-AgTx2 from the complexes with KcsA–Kv1.3 at nanomolar concentrations
same,Kd,[1],0.54 ± 0.11 nM
same,Kd,Kv1.3 channel [7]; ref [19],2 nM
same,inhibition of Shaker K^+ channel (in words),Shaker K^+ channel,high-affinity inhibitor
same,Kd,KcsA–Kv1.3,0.23 nM
same,inhibition of Kv1.3 (in words),"Kv1.3 channel [6]; mammalian channel, ref [1]",high-affinity inhibitor
same,inhibition of Kv1.1 (in words),"Kv1.1 channel; mammalian channel, ref [1]",high-affinity inhibitor
same,inhibition of Kv1.6 (in words),"Kv1.6 channel; mammalian channel, ref [1]",high-affinity inhibitor
charybdotoxin [ChTx],displacement of A-AgTx2 from complexes with KcsA–Kv1.3 by peptide blockers (in words),[1]; A-AgTx2 10 nM,displaced A-AgTx2 from the complexes with KcsA–Kv1.3 at nanomolar concentrations
kaliotoxin-1 [KTx1],displacement of A-AgTx2 from complexes with KcsA–Kv1.3 by peptide blockers (in words),[1]; A-AgTx2 10 nM,displaced A-AgTx2 from the complexes with KcsA–Kv1.3 at nanomolar concentrations
same,Kd,[1],0.06 ± 0.02 nM
same,Kd,Kv1.3 channel [7]; ref [20],0.1 nM
same,Kd,KcsA–Kv1.3,0.1 nM
"scyllatoxin (AFCNLRMCQLSCRSLGLLGKCIGDKCECVKH; UniProt P16341 1-31, looked up) [ScyTx]",block of KCa2.1 (in words),KCa2.1 channel,"blocks the KCa2.1, KCa2.2, and KCa2.3 channels"
same,displacement of A-AgTx2 from complexes with KcsA–Kv1.3 by control peptide (in words),"[1]; A-AgTx2 10 nM, ScyTx 5 µM",did not disturb the complexes of A-AgTx2 with KcsA–Kv1.3
same,block of KCa2.3 (in words),KCa2.3 channel,"blocks the KCa2.1, KCa2.2, and KCa2.3 channels"
same,block of KCa2.2 (in words),KCa2.2 channel,"blocks the KCa2.1, KCa2.2, and KCa2.3 channels"
same,interaction with Kv1.3 (in words),"Kv1.3 channel [6]; stated as known, ref [18]",does not interact with Kv1.3
